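All cell lines were grown in 96-well plates and treated with compound for 48 hours. TGI marks complete inhibition of growth.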
test system: 786-0 renal; assay: DTP human tumour cell line panel, 48 h

For `CC(O)(C(=O)N(O)c1ccc(Cl)cc1)c1ccc(Cl)cc1` (stereo not given), which TGI is on record?
Its TGI is over 100 µM.

How did the TGI turn out when `CC1(C)[C@@H]2C[C@H]1c1cnc(-c3ccccn3)cc1[C@H]2C(O)[C@@H]1c2cc(-c3ccccn3)ncc2[C@H]2C[C@@H]1C2(C)C` (stereo not given in full) was run?
Its TGI is 4.69 µM.

`CC1(C)OC(CCO)CN1C(=O)OCc1ccccc1` (stereo not given) was tested. Which TGI did it give?
The TGI was over 100 µM.

With `COc1ccc(N2C(=O)C3c4[nH]c5ccccc5c4C4C(C)CCCC4C3C2=O)cc1` (stereo not given) as the compound, how does the TGI read?
Its TGI is over 63.5 µM.

`O=c1c(Cc2ccccc2)c(-c2ccccc2)[nH]n1C1=NCCN1` was tested. Which TGI did it give?
The TGI was over 100 µM.

With `CCOC(=O)Cc1nn2c(=O)cc(C)nc2s1` as the compound, how does the TGI read?
Its TGI is over 100 µM.

For `CCOC1NC(=O)c2ccccc21` (stereo not given), which TGI is on record?
Its TGI is over 100 µM.

How did the TGI turn out when `CCN(C(=O)N[C@H](C(=O)N[C@@H](C)C(=O)OC)C(C)C)c1ccccc1` was run?
Its TGI is 92.4 µM.

Which TGI does the source give for `CCOC(=O)c1ccc(C(=O)/C(C(=O)OC(C)(C)C)=C2\CCCN2C)n1C` here?
Its TGI is over 100 µM.

`O=CN(O)CC(=O)O` was tested. Which TGI did it give?
The TGI was over 100 µM.

With `OCC1OC(O[C@H]2CN3[C@H](O)[C@@H](O)[C@H](O)[C@H]3C2O)C(O)C(O)C1O` (stereo not given in full) as the compound, how does the TGI read?
The TGI was over 100 µM.

How did the TGI turn out when `CC1OC(n2cc(F)c(=O)[nH]c2=O)C(O[Si](C)(C)C(C)(C)C)C1O[Si](C)(C)C(C)(C)C` (stereo not given) was run?
Its TGI is 27.7 µM.

Which TGI does the source give for `O=S1(=O)c2ccccc2NC(=S)N1c1ccccc1` here?
Its TGI is over 100 µM.

For `COC(=O)C(CCSC)NC(=O)CSc1nnc(COc2ccc(Cl)cc2)n1-c1ccccc1` (stereo not given), which TGI is on record?
Its TGI is 30 µM.

How did the TGI turn out when `c1ccc(-c2ccc(N=NN3CCCC3)cc2)cc1` was run?
The TGI was over 100 µM.

For `COn1cc(CO)c2ccccc21`, which TGI is on record?
The TGI was over 100 µM.

`COc1cc2nc(-c3c(F)cccc3F)n(Cc3c(F)cccc3F)c2cc1Cc1c(F)cccc1F` was tested. Which TGI did it give?
The TGI was over 100 µM.

Which TGI does the source give for `O=C(/C=C1\C[C@H]2C=Nc3ccccc3C(=O)N2C1)NCCCCCNC(=O)/C=C1\C[C@H]2C=Nc3ccccc3C(=O)N2C1` here?
The TGI was 3.42 µM.

For `CC[P+](C#Cc1ccccc1)(c1ccccc1)c1ccccc1`, which TGI is on record?
The TGI was 4.36 µM.

With `CC(C)Cc1c(C#N)c(C#N)c(N)n1Cc1ccccc1` as the compound, how does the TGI read?
Its TGI is over 100 µM.

Which TGI does the source give for `NS(=O)(=O)c1nnc(NSc2ccc([N+](=O)[O-])cc2)s1` here?
Its TGI is over 100 µM.

How did the TGI turn out when `CC(C)(C)c1ccc2c(c1)OCc1n[nH]c(n1)COc1cc(C(C)(C)C)ccc1OCCOCCO2` was run?
The TGI was 16 µM.

How did the TGI turn out when `O=C(CN=C(CN(c1ccccc1)c1ccccc1)Oc1c(Cl)cc(Cl)cc1Cl)n1cnc2ccccc21` was run?
The TGI was over 100 µM.

Which TGI does the source give for `COC(=O)c1sc2ncc3c(c2c1N)CC(C)CC3` (stereo not given) here?
Its TGI is over 100 µM.

For `Cc1cccc(NC(Nc2cccc(C)c2)=C(C(Cl)=C(Cl)Cl)[N+](=O)[O-])c1`, which TGI is on record?
The TGI was 44.3 µM.

With `CC1=CCC[C@H]2[C@](C)(CC3=CC(=O)C4SCCSC4C3=O)[C@@H](C)CC[C@]12C` (stereo not given in full) as the compound, how does the TGI read?
Its TGI is 35 µM.

With `C/C(=N\Nc1nc2ccccc2s1)c1cccnn1` as the compound, how does the TGI read?
Its TGI is over 100 µM.

With `COC(=O)C1=C(C(=O)OC)C2(C)CCC(=O)C1O2` (stereo not given) as the compound, how does the TGI read?
Its TGI is over 10 µM.

Which TGI does the source give for `Nc1n[nH]c2ccccc12` here?
Its TGI is over 100 µM.

`COC(=O)[C@H]1C=C[C@H](OC2OC(COC(C)=O)C(OC(C)=O)C(OC(C)=O)C2OC(C)=O)n2c(=O)n(-c3ccccc3)c(=O)n21` (stereo not given in full) was tested. Which TGI did it give?
Its TGI is 14.7 µM.

`N/C(CSCCSC/C(N)=N/O)=N\O` was tested. Which TGI did it give?
Its TGI is over 100 µM.

test system: BT-549 breast; assay: DTP human tumour cell line panel, 48 h

With `CC(O)(C(=O)N(O)c1ccc(Cl)cc1)c1ccc(Cl)cc1` (stereo not given) as the compound, how does the TGI read?
Its TGI is 61.5 µM.

`CC1(C)[C@@H]2C[C@H]1c1cnc(-c3ccccn3)cc1[C@H]2C(O)[C@@H]1c2cc(-c3ccccn3)ncc2[C@H]2C[C@@H]1C2(C)C` (stereo not given in full) was tested. Which TGI did it give?
The TGI was 3.8 µM.

`CC1(C)OC(CCO)CN1C(=O)OCc1ccccc1` (stereo not given) was tested. Which TGI did it give?
Its TGI is over 100 µM.

How did the TGI turn out when `COc1ccc(N2C(=O)C3c4[nH]c5ccccc5c4C4C(C)CCCC4C3C2=O)cc1` (stereo not given) was run?
The TGI was over 33.6 µM.

How did the TGI turn out when `O=c1c(Cc2ccccc2)c(-c2ccccc2)[nH]n1C1=NCCN1` was run?
The TGI was over 100 µM.

For `CCOC(=O)Cc1nn2c(=O)cc(C)nc2s1`, which TGI is on record?
Its TGI is over 100 µM.

How did the TGI turn out when `CCOC1NC(=O)c2ccccc21` (stereo not given) was run?
Its TGI is over 100 µM.

For `CCN(C(=O)N[C@H](C(=O)N[C@@H](C)C(=O)OC)C(C)C)c1ccccc1`, which TGI is on record?
Its TGI is over 100 µM.

With `CCOC(=O)c1ccc(C(=O)/C(C(=O)OC(C)(C)C)=C2\CCCN2C)n1C` as the compound, how does the TGI read?
The TGI was over 100 µM.

How did the TGI turn out when `O=CN(O)CC(=O)O` was run?
The TGI was over 100 µM.

How did the TGI turn out when `OCC1OC(O[C@H]2CN3[C@H](O)[C@@H](O)[C@H](O)[C@H]3C2O)C(O)C(O)C1O` (stereo not given in full) was run?
Its TGI is over 100 µM.

For `CC1OC(n2cc(F)c(=O)[nH]c2=O)C(O[Si](C)(C)C(C)(C)C)C1O[Si](C)(C)C(C)(C)C` (stereo not given), which TGI is on record?
Its TGI is 26.1 µM.

For `O=S1(=O)c2ccccc2NC(=S)N1c1ccccc1`, which TGI is on record?
The TGI was 99.2 µM.

With `COC(=O)C(CCSC)NC(=O)CSc1nnc(COc2ccc(Cl)cc2)n1-c1ccccc1` (stereo not given) as the compound, how does the TGI read?
The TGI was 37.4 µM.

How did the TGI turn out when `c1ccc(-c2ccc(N=NN3CCCC3)cc2)cc1` was run?
Its TGI is over 100 µM.

`COn1cc(CO)c2ccccc21` was tested. Which TGI did it give?
Its TGI is over 100 µM.

`COc1cc2nc(-c3c(F)cccc3F)n(Cc3c(F)cccc3F)c2cc1Cc1c(F)cccc1F` was tested. Which TGI did it give?
Its TGI is over 100 µM.

`O=C(/C=C1\C[C@H]2C=Nc3ccccc3C(=O)N2C1)NCCCCCNC(=O)/C=C1\C[C@H]2C=Nc3ccccc3C(=O)N2C1` was tested. Which TGI did it give?
The TGI was 26 µM.

Which TGI does the source give for `CC[P+](C#Cc1ccccc1)(c1ccccc1)c1ccccc1` here?
Its TGI is 3.43 µM.

With `CC(C)Cc1c(C#N)c(C#N)c(N)n1Cc1ccccc1` as the compound, how does the TGI read?
Its TGI is over 100 µM.

`NS(=O)(=O)c1nnc(NSc2ccc([N+](=O)[O-])cc2)s1` was tested. Which TGI did it give?
The TGI was over 100 µM.

With `CC(C)(C)c1ccc2c(c1)OCc1n[nH]c(n1)COc1cc(C(C)(C)C)ccc1OCCOCCO2` as the compound, how does the TGI read?
Its TGI is 10.9 µM.

`O=C(CN=C(CN(c1ccccc1)c1ccccc1)Oc1c(Cl)cc(Cl)cc1Cl)n1cnc2ccccc21` was tested. Which TGI did it give?
Its TGI is over 100 µM.

With `COC(=O)c1sc2ncc3c(c2c1N)CC(C)CC3` (stereo not given) as the compound, how does the TGI read?
Its TGI is over 100 µM.

`Cc1cccc(NC(Nc2cccc(C)c2)=C(C(Cl)=C(Cl)Cl)[N+](=O)[O-])c1` was tested. Which TGI did it give?
Its TGI is 26.3 µM.

`CC1=CCC[C@H]2[C@](C)(CC3=CC(=O)C4SCCSC4C3=O)[C@@H](C)CC[C@]12C` (stereo not given in full) was tested. Which TGI did it give?
The TGI was 39.7 µM.

For `C/C(=N\Nc1nc2ccccc2s1)c1cccnn1`, which TGI is on record?
Its TGI is 60 µM.

`COC(=O)C1=C(C(=O)OC)C2(C)CCC(=O)C1O2` (stereo not given) was tested. Which TGI did it give?
The TGI was over 10 µM.

How did the TGI turn out when `Nc1n[nH]c2ccccc12` was run?
The TGI was over 100 µM.

For `COC(=O)[C@H]1C=C[C@H](OC2OC(COC(C)=O)C(OC(C)=O)C(OC(C)=O)C2OC(C)=O)n2c(=O)n(-c3ccccc3)c(=O)n21` (stereo not given in full), which TGI is on record?
The TGI was 9.14 µM.

For `N/C(CSCCSC/C(N)=N/O)=N\O`, which TGI is on record?
The TGI was over 100 µM.

test system: COLO 205 colon; assay: DTP human tumour cell line panel, 48 h

Which TGI does the source give for `CC(O)(C(=O)N(O)c1ccc(Cl)cc1)c1ccc(Cl)cc1` (stereo not given) here?
Its TGI is 33 µM.

`CC1(C)[C@@H]2C[C@H]1c1cnc(-c3ccccn3)cc1[C@H]2C(O)[C@@H]1c2cc(-c3ccccn3)ncc2[C@H]2C[C@@H]1C2(C)C` (stereo not given in full) was tested. Which TGI did it give?
Its TGI is 4.06 µM.

Which TGI does the source give for `CC1(C)OC(CCO)CN1C(=O)OCc1ccccc1` (stereo not given) here?
Its TGI is over 100 µM.

With `COc1ccc(N2C(=O)C3c4[nH]c5ccccc5c4C4C(C)CCCC4C3C2=O)cc1` (stereo not given) as the compound, how does the TGI read?
Its TGI is over 100 µM.

With `O=c1c(Cc2ccccc2)c(-c2ccccc2)[nH]n1C1=NCCN1` as the compound, how does the TGI read?
The TGI was over 100 µM.

Which TGI does the source give for `CCOC(=O)Cc1nn2c(=O)cc(C)nc2s1` here?
Its TGI is over 100 µM.

For `CCOC1NC(=O)c2ccccc21` (stereo not given), which TGI is on record?
Its TGI is over 100 µM.

`CCN(C(=O)N[C@H](C(=O)N[C@@H](C)C(=O)OC)C(C)C)c1ccccc1` was tested. Which TGI did it give?
The TGI was 43.4 µM.

For `CCOC(=O)c1ccc(C(=O)/C(C(=O)OC(C)(C)C)=C2\CCCN2C)n1C`, which TGI is on record?
Its TGI is over 100 µM.

With `O=CN(O)CC(=O)O` as the compound, how does the TGI read?
The TGI was over 100 µM.

Which TGI does the source give for `OCC1OC(O[C@H]2CN3[C@H](O)[C@@H](O)[C@H](O)[C@H]3C2O)C(O)C(O)C1O` (stereo not given in full) here?
The TGI was over 100 µM.

With `CC1OC(n2cc(F)c(=O)[nH]c2=O)C(O[Si](C)(C)C(C)(C)C)C1O[Si](C)(C)C(C)(C)C` (stereo not given) as the compound, how does the TGI read?
The TGI was 27.4 µM.

How did the TGI turn out when `O=S1(=O)c2ccccc2NC(=S)N1c1ccccc1` was run?
Its TGI is over 100 µM.

For `COC(=O)C(CCSC)NC(=O)CSc1nnc(COc2ccc(Cl)cc2)n1-c1ccccc1` (stereo not given), which TGI is on record?
Its TGI is 34.9 µM.

For `c1ccc(-c2ccc(N=NN3CCCC3)cc2)cc1`, which TGI is on record?
Its TGI is over 100 µM.

For `COn1cc(CO)c2ccccc21`, which TGI is on record?
The TGI was over 100 µM.

For `COc1cc2nc(-c3c(F)cccc3F)n(Cc3c(F)cccc3F)c2cc1Cc1c(F)cccc1F`, which TGI is on record?
The TGI was over 100 µM.

For `O=C(/C=C1\C[C@H]2C=Nc3ccccc3C(=O)N2C1)NCCCCCNC(=O)/C=C1\C[C@H]2C=Nc3ccccc3C(=O)N2C1`, which TGI is on record?
Its TGI is over 21 µM.

`CC[P+](C#Cc1ccccc1)(c1ccccc1)c1ccccc1` was tested. Which TGI did it give?
The TGI was 2.59 µM.

How did the TGI turn out when `CC(C)Cc1c(C#N)c(C#N)c(N)n1Cc1ccccc1` was run?
The TGI was over 100 µM.

Which TGI does the source give for `NS(=O)(=O)c1nnc(NSc2ccc([N+](=O)[O-])cc2)s1` here?
The TGI was over 100 µM.

How did the TGI turn out when `CC(C)(C)c1ccc2c(c1)OCc1n[nH]c(n1)COc1cc(C(C)(C)C)ccc1OCCOCCO2` was run?
The TGI was 12.6 µM.

Which TGI does the source give for `O=C(CN=C(CN(c1ccccc1)c1ccccc1)Oc1c(Cl)cc(Cl)cc1Cl)n1cnc2ccccc21` here?
The TGI was over 100 µM.

Source: PubChem BioAssay (NCI)
